According to ChEMBL document CHEMBL1124557, “Pentadienyl carboxamide derivatives as antagonists of platelet-activating factor” (J Med Chem, 1989):

Experiments:
[1] = molecular target: Platelet-activating factor receptor (Cavia porcellus) (UniProt P21556); experiment: Ability to prevent PAF-induced bronchoconstriction in guinea pig when administered intravenously; assay type: functional
[2] = molecular target: Platelet-activating factor receptor (Cavia porcellus) (UniProt P21556); experiment: Ability to prevent PAF-induced bronchoconstriction in guinea pig 2 hr after administration (50 mg/kg perorally); assay type: functional, organism-based
Cavia porcellus [3] = experiment: Ability to prevent PAF-induced bronchoconstriction in guinea pig 6 hr following 50 mg/kg p.o. administration.; assay type: functional; conditions: route oral
Cavia porcellus [4] = experiment: Ability to prevent PAF-induced bronchoconstriction in guinea pig when administered at a dose of 1 mg/kg intravenously; assay type: functional; conditions: route intravenous
Cavia porcellus [5] = experiment: PAF-induced capillary permeability changes are studied in guinea pig skin test, after peroral administration of the compound; assay type: functional; conditions: po, read-out: ID50 (the source's name)
Cavia porcellus [6] = experiment: PAF-induced capillary permeability changes are studied in guinea pig test, after intravenous administration of the compound; assay type: functional; conditions: read-out: ID50 (the source's name)
Cavia porcellus [7] = experiment: Inhibitory activity against bronchoconstriction in guinea pig 2 hr after peroral administration of compound; assay type: functional; conditions: Lung, po, read-out: ID50 (the source's name)
Rattus norvegicus [8] = experiment: PAF-induced capillary permeability changes are studied in rat skin test, after peroral administration of the compound; assay type: functional; conditions: po, read-out: ID50 (the source's name)
Rattus norvegicus [9] = experiment: PAF-induced capillary permeability changes are studied in rat skin test, after intravenous administration of the compound; assay type: functional; conditions: read-out: ID50 (the source's name)
Cavia porcellus [10] = experiment: Inhibition of PAF-induced bronchoconstriction in guinea pig 2 hr after p.o. administration.; assay type: functional; conditions: po, read-out: ID50 (the source's name)
Cavia porcellus [11] = experiment: Ability to prevent PAF-induced bronchoconstriction in guinea pig when administered dose 1 mg/kg intravenously; assay type: functional; conditions: route intravenous
Cavia porcellus [12] = experiment: Ability to prevent PAF-induced bronchoconstriction in guinea pig when administered dose 0.5 mg/kg intravenously; assay type: functional; conditions: route intravenous
Cavia porcellus [13] = experiment: Ability to prevent PAF-induced bronchoconstriction in guinea pig 2 hr after administration of compound (50 mg/kg perorally); assay type: functional; conditions: po, read-out: ID50 (the source's name)

Chain of Platelet-activating factor receptor (Cavia porcellus) (P21556 whole entry): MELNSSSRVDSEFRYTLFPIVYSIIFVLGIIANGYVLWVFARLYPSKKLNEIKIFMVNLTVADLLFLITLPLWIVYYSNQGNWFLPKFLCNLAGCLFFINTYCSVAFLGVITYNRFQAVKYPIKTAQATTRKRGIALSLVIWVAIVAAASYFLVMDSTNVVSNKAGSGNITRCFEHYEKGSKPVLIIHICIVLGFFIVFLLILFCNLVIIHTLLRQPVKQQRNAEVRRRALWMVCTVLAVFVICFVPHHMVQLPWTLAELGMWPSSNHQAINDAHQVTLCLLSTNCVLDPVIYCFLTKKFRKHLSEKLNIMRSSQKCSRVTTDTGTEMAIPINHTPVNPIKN

SMILES | ID50 [1] | inhibition [2] | inhibition in vivo at 50 mg/kg (Cavia porcellus [3]) | inhibition in vivo at 1 mg/kg (Cavia porcellus [4]) | ED50 (Cavia porcellus [5]) | ED50 (Cavia porcellus [6]) | ED50 (Cavia porcellus [7]) | ED50 (Rattus norvegicus [8]) | ED50 (Rattus norvegicus [9]) | ED50 (Cavia porcellus [10]) | inhibition in vivo at 1 mg/kg (Cavia porcellus [11]) | inhibition in vivo at 0.5 mg/kg (Cavia porcellus [12]) | ED50 (Cavia porcellus [13])
CCCCC/C(=C\C=C\C(=O)N[C@H](C)CCCc1cccnc1)c1ccc(OC)cc1 | 0.05 mg/kg | 100% | 71% | 99% | 65 mg/kg | 3 mg/kg | 16 mg/kg | 70 mg/kg | 1.7 mg/kg | – | – | – | –
Cc1nnc2n1-c1sc(CCC(=O)N3CCOCC3)cc1C(c1ccccc1Cl)=NC2 [APAFANT] | 0.03 mg/kg | 100% | 100% | 99% | 35 mg/kg | 2.5 mg/kg | – | 45 mg/kg | 0.64 mg/kg | 1 mg/kg | – | – | –
CCCCCC/C(=C\C=C\C(=O)N[C@H](C)CCCc1cccnc1)c1ccc(OC)cc1 | 0.07 mg/kg | 96% | 14% | – | – | – | – | – | – | 8 mg/kg | 100% | – | –
O=C(C/C=C/C=C(c1ccccc1)c1ccccc1)NCCCCc1cccnc1 | – | 35% | – | – | – | – | – | – | – | – | – | 60% | 0.62 mg/kg
COc1ccc(C(=C/C=C/C(=O)N[C@H](C)CCCc2cccnc2)c2ccc(OC)cc2)cc1 | 0.25 mg/kg | 98% | 93% | 98% | 75 mg/kg | 15 mg/kg | 4 mg/kg | 25 mg/kg | 2 mg/kg | – | – | – | –
